Results published in patent publication US4038480A, “6-Aminocarbonyl purine 3',5'-cyclic nucleotides” (ICN Pharmaceuticals, Inc., priority 1973, dated 1977).
Counter-ions that a name gives are not always drawn.

Columns and labels:
[1] = test system: bovine brain C-AMP dependent kinase; conditions: relative to C-AMP; K. Muneyama et al; cited from earlier work
[2] = test system: rabbit kidney high Km C-AMP phosphodiesterase; test: Vulnerability to degradation (hydrolysis) by high Km C-AMP phosphodiesterase; assay type: biochemical; conditions: for resistance to hydrolysis compared with C-AMP: rabbit kidney high Km phosphodiesterase
Source text: In fact, hydrolysis to any appreciable extent could be detected only in the case of compound 8 (hydrolysis at a rate only 8% that of C-AMP).

[3] = biological target: beef heart cAMP phosphodiesterase; test: Inhibition of beef heart cAMP phosphodiesterase; assay type: biochemical; conditions: read-out: I50, Beef Heart
Source text: (§1) The results appear in Table I below.

[4] = biological target: rabbit lung cAMP phosphodiesterase; test: Inhibition of rabbit lung cAMP phosphodiesterase; assay type: biochemical; conditions: read-out: I50, Rabbit Lung
Source text: as §1

[5] = test system: steroidogenisis; test: Activation of steroidogenesis
[6] = test system: lipolysis; test: Activation of lipolysis
[7] = Lowering of blood pressure; conditions: in vivo
[8] = biological target: bovine brain C-AMP dependent kinase; test: Activation of C-AMP dependent protein kinase; assay type: biochemical; conditions: for kinase activation compared with C-AMP: bovine brain kinase, comparison in words
Experimental: Preferred carbamoyl compounds prepared as in the preceding examples were assayed for ability to activate protein kinase by the procedure described in K. Muneyama et al, Biochem. 10, 2390 (1971), using bovine brain C-AMP dependent kinase purified according to Kuo & Greengard, in Proc. Nat. Acad. Sci. U.S.A. 64, 1349 (1969). […] K. Muneyama et al, supra.

[9] = test system: adenyl cyclase; test: Inhibition of adenyl cyclase; assay type: biochemical
[10] = Inotropic action (cardiac output, heart rate); assay type: in vivo; conditions: inotropic agent

Row | resistance to hydrolysis compared with C-AMP [2] | IC50 [3] | IC50 [4] | SMILES | activation of steroidogenesis, concentration compared with C-AMP [5] | activation of lipolysis, concentration compared with C-AMP [6] | lowering of blood pressure [7] | other results
1 | – | – | – | Nc1ncnc2c1nc(S)n2[C@@H]1O[C@@H]2COP(=O)(O)O[C@H]2[C@H]1O [8-thio derivative of C-AMP] | – | – | – | Ka' (highest value previously reported in the literature) [1]: 3.77
2 | more resistant to hydrolysis than C-AMP | – | – | CNC(=O)Nc1ncnc2c1ncn2[C@@H]1O[C@@H]2COP(=O)(O)O[C@H]2[C@H]1OC(=O)NC [Compound 2, N^6, 2'-O-bis-(N-Methylcarbamoyl)adenosine 3',5'-cyclic phosphate sodium salt] | – | – | – | –
3 | more resistant to hydrolysis than C-AMP | – | – | CCCNC(=O)Nc1ncnc2c1ncn2[C@@H]1O[C@@H]2COP(=O)(O)O[C@H]2[C@H]1OC(=O)NCCC [Compound 3, N^6, 2'-O-bis-(N-Propylcarbamoyl)adenosine 3', 5'-cyclic phosphate sodium salt] | – | – | – | –
4 | more resistant to hydrolysis than C-AMP | 93 µM | 190 µM | O=C(Nc1ccccc1)Nc1ncnc2c1ncn2[C@@H]1O[C@@H]2COP(=O)(O)O[C@H]2[C@H]1OC(=O)Nc1ccccc1 [Compound 4, N^6, 2'-O-bis-(N-Phenylcarbamoyl)adenosine 3',5'-cyclic phosphate sodium salt] | – | – | – | –
5 | more resistant to hydrolysis than C-AMP | – | – | CNC(=O)Nc1ncnc2c1ncn2[C@@H]1O[C@@H]2COP(=O)(O)O[C@H]2[C@H]1O [Compound 5, N^6-(N-Methylcarbamoyl) adenosine 3',5'-cyclic phosphate] | at concentrations substantially lower than C-AMP | at concentrations substantially lower than C-AMP | act to lower blood pressure | –
6 | more resistant to hydrolysis than C-AMP | – | – | CCCNC(=O)Nc1ncnc2c1ncn2[C@@H]1O[C@@H]2COP(=O)(O)O[C@H]2[C@H]1O [Compound 6, N^6-(N-Propylcarbamoyl) adenosine 3',5'-cyclic phosphate] | at concentrations substantially lower than C-AMP | at concentrations substantially lower than C-AMP | act to lower blood pressure | kinase activation compared with C-AMP [8]: superior in kinase activation to C-AMP itself
7 | more resistant to hydrolysis than C-AMP | 22 µM | 160 µM | O=C(Nc1ccccc1)Nc1ncnc2c1ncn2[C@@H]1O[C@@H]2COP(=O)(O)O[C@H]2[C@H]1O [Compound 7, N^6-(N-Phenylcarbamoyl)adenosine 3',5'-cyclic phosphate] | at concentrations substantially lower than C-AMP | at concentrations substantially lower than C-AMP | – | Ka' (Ka for C-AMP/Ka for test compound) ([8]; Ka from Lineweaver-Burk plot, relative to C-AMP): 4.9; kinase activation compared with C-AMP [8]: superior in kinase activation to C-AMP itself; activation of protein kinase relative to C-AMP (times better) ([8]; bovine brain protein kinase, relative to C-AMP): approximately five; inhibition of adenyl cyclase [9]: inhibit adenyl cyclase; effect on heart rate [10]: without deleteriously affecting heart rate; persistence of inotropic action [10]: persistent in action; increase of cardiac output compared with aminophylline ([10]; compared with aminophylline): the equal of aminophylline in increasing cardiac output
8 | more resistant to hydrolysis than C-AMP | 130 µM | 210 µM | CCOC(=O)Nc1ncnc2c1ncn2[C@@H]1O[C@@H]2COP(=O)(O)O[C@H]2[C@H]1O [Compound 8, N^6-(Ethoxycarbonyl)adenosine 3'5'-cyclic phosphate] | at concentrations substantially lower than C-AMP | at concentrations substantially lower than C-AMP | act to lower blood pressure | rate of hydrolysis relative to C-AMP ([2]; rate as % that of C-AMP): 8%
9 | more resistant to hydrolysis than C-AMP | 260 µM | 130 µM | CNC(=O)Nc1ncnc2c1nc(Br)n2[C@@H]1O[C@@H]2COP(=O)(O)O[C@H]2[C@H]1OC(=O)NC [Compound 11, 8-Bromo-N^6,2'-O-bis-(N-methylcarbamoyl)adenosine 3',5'-cyclic phosphate] | – | – | – | –
10 | more resistant to hydrolysis than C-AMP | 22 µM | 10 µM | O=C(Nc1ccccc1)Nc1ncnc2c1nc(SCc1ccccc1)n2[C@@H]1O[C@@H]2COP(=O)(O)O[C@H]2[C@H]1OC(=O)Nc1ccccc1 [Compound 12, 8-Benzylthio-N^6,2'-O-bis-(N-phenylcarbamoyl) adenosine 3',5'-cyclic phosphate sodium salt] | – | – | – | –
11 | more resistant to hydrolysis than C-AMP | 14 µM | 21 µM | O=C(Nc1ccccc1)Nc1ncnc2c1nc(SCc1ccccc1)n2[C@@H]1O[C@@H]2COP(=O)(O)O[C@H]2[C@H]1O [Compound 15, 8-Benzylthio-N^6-(N-phenylcarbamoyl)adenosine 3',5'-cyclic phosphate] | – | – | act to lower blood pressure | kinase activation compared with C-AMP [8]: superior in kinase activation to C-AMP itself; inhibition of adenyl cyclase [9]: inhibit adenyl cyclase
12 | more resistant to hydrolysis than C-AMP | – | – | CNC(=O)Nc1ncnc2c1nc(S)n2[C@@H]1O[C@@H]2COP(=O)(O)O[C@H]2[C@H]1OC(=O)NC [Compound 16, N^6,2'-O-bis-(N-Methylcarbamoyl)-8-mercaptoadenosine 3',5'-cyclic phosphate sodium salt] | – | – | – | –

Row | SMILES | resistance to hydrolysis compared with C-AMP [2] | IC50 [3] | IC50 [4] | activation of steroidogenesis, concentration compared with C-AMP [5] | activation of lipolysis, concentration compared with C-AMP [6] | lowering of blood pressure [7] | other results
13 | Cn1c(=O)c2[nH]cnc2n(C)c1=O [Theophylline, reference compound] | – | 130 µM | 230 µM | – | – | – | –
